Results as given in US6737383B1, “Herbicidal oxadiazolidines” (priority 1999, dated 2004).

How the values were obtained:
[1] = system: crabgrass; assay: Test B pre/postemergence crabgrass; type: in vivo, Digitaria sanguinalis
Method in brief: (§1)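 Response is a visual 0-to-10 score relative to untreated plants, where 0 means no effect and 10 means complete control, taken twelve to sixteen days after application. Treatments went onto soil at planting and onto foliage of 1- to 4-leaf plants, using a surfactant-containing non-phytotoxic solvent.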

[2] = system: velvetleaf; assay: Test B pre/postemergence velvetleaf; type: in vivo, Abutilon theophrasti
Method in brief: as §1

[3] = system: blackgrass; assay: Test B pre/postemergence blackgrass; type: in vivo, Alopecurus myosuroides
Method in brief: as §1

[4] = system: corn; assay: Test B pre/postemergence corn; type: in vivo, Zea mays
Method in brief: as §1

[5] = system: bedstraw; assay: Test B pre/postemergence bedstraw; type: in vivo, Galium aparine; conditions: for Bedstraw plant response rating: 10 is complete control; for Plant response rating, Bedstraw: scale of 0 to 10 where 0 is no effect and 10 is complete control
Method in brief: as §1

[6] = system: soybean; assay: Test B pre/postemergence soybean; type: in vivo, Glycine max
Method in brief: as §1

[7] = system: wheat; assay: Test B pre/postemergence wheat; type: in vivo, Triticum aestivum
Method in brief: as §1

[8] = system: giant foxtail; assay: Test B pre/postemergence giant foxtail; type: in vivo, Setaria faberii
Method in brief: as §1

[9] = system: sugar beet; assay: Test B pre/postemergence sugar beet; type: in vivo, Beta vulgaris
Method in brief: as §1

[10] = system: cocklebur; assay: Test B pre/postemergence cocklebur; type: in vivo, Xanthium strumarium
Method in brief: as §1

[11] = system: pigweed; assay: Test B pre/postemergence pigweed; type: in vivo, Amaranthus retroflexus
Method in brief: as §1

[12] = system: wild oat; assay: Test B pre/postemergence wild oat; type: in vivo, Avena fatua
Method in brief: as §1

[13] = system: rape; assay: Test B pre/postemergence rape; type: in vivo, Brassica napus
Method in brief: as §1

[14] = system: morningglory; assay: Test B pre/postemergence morningglory; type: in vivo, Ipomoea hederacea
Method in brief: as §1

[15] = system: purple nutsedge; assay: Test B pre/postemergence purple nutsedge; type: in vivo, Cyperus rotundus
Method in brief: as §1

[16] = system: surinam grass; assay: Test B pre/postemergence surinam grass; type: in vivo, Brachiaria decumbens
Method in brief: as §1

[17] = Postemergence, Rate 62 g/ha, scale of 0 to 10, 0 is no effect, 10 is complete control
[18] = Postemergence, Rate 125 g/ha, scale 0 to 10, 0 is no effect, 10 is complete control
[19] = Postemergence, Rate 250 g/ha, scale 0 to 10
[20] = Postemergence, Rate 500 g/ha, scale 0 to 10, 0 is no effect, 10 is complete control
[21] = Preemergence, Rate 62 g/ha, scale of 0 to 10 where 0 is no effect and 10 is complete control
[22] = Preemergence, Rate 125 g/ha, scale 0 to 10, 0 is no effect, 10 is complete control
[23] = Preemergence, Rate 500 g/ha, scale of 0 to 10 where 0 is no effect and 10 is complete control
[24] = Preemergence, Rate 250 g/ha, scale 0 to 10, 0 is no effect, 10 is complete control
[25] = Preemergence, Rate 250 g/ha, scale 0 to 10, 0 is no effect
[26] = Preemergence, Rate 500 g/ha, scale 0 to 10, 0 is no effect
[27] = Postemergence, Rate 250 g/ha, scale 0 to 10, 0 no effect, 10 complete control
[28] = Preemergence, Rate 500 g/ha, scale 0 to 10, 0 is no effect, 10 is complete control

CC(=O)C(C)n1c(=O)on(C(=O)N(c2ccc(F)cc2F)C(C)C)c1=O (centres unmarked) [Compound 517]
Crabgrass plant response rating [1, 17]: 7 | Crabgrass plant response rating [1, 18]: 7 | Crabgrass plant response rating [1, 19]: 8 | Plant response rating, Crabgrass [1, 20]: 9 | Plant response rating, Crabgrass [1, 21]: 4 | Crabgrass plant response rating [1, 22]: 4 | Crabgrass plant response rating [1, 23]: 7 | Velvetleaf plant response rating [2, 17]: 0 | Velvetleaf plant response rating [2, 18]: 0 | Plant response rating, Velvetleaf [2, 20]: 6 | Plant response rating, Velvetleaf [2, 21]: 0 | Velvetleaf plant response rating [2, 22]: 0 | Velvetleaf plant response rating [2, 23]: 3 | Blackgrass plant response rating [3, 17]: 0 | Blackgrass plant response rating [3, 18]: 3 | Blackgrass plant response rating [3, 19]: 6 | Plant response rating, Blackgrass [3, 20]: 6 | Plant response rating, Blackgrass [3, 21]: 2 | Blackgrass plant response rating [3, 22]: 2 | Blackgrass plant response rating [3, 24]: 4 | Blackgrass plant response rating [3, 23]: 4 | Corn plant response rating [4, 17]: 0 | Corn plant response rating [4, 18]: 0 | Corn plant response rating [4, 19]: 0 | Plant response rating, Corn [4, 20]: 4 | Plant response rating, Corn [4, 21]: 0 | Corn plant response rating [4, 22]: 0 | Corn plant response rating [4, 23]: 3 | Bedstraw plant response rating ([5]; Postemergence, Rate 62 g/ha, scale of 0 to 10, 0 is no effect): 4 | Bedstraw plant response rating ([5]; Postemergence, Rate 125 g/ha, scale 0 to 10, 0 is no effect): 7 | Plant response rating, Bedstraw ([5]; Preemergence, Rate 62 g/ha): 0 | Bedstraw plant response rating ([5]; Preemergence, Rate 125 g/ha, scale 0 to 10, 0 is no effect): 0 | Bedstraw plant response rating [5, 25]: 0 | Bedstraw plant response rating [5, 26]: 0 | Soybean plant response rating [6, 17]: 0 | Soybean plant response rating [6, 18]: 6 | Plant response rating, Soybean [6, 20]: 8 | Plant response rating, Soybean [6, 21]: 0 | Soybean plant response rating [6, 22]: 0 | Soybean plant response rating [6, 23]: 0 | Wheat plant response rating [7, 17]: 0 | Wheat plant response rating [7, 18]: 0 | Plant response rating, Wheat [7, 20]: 4 | Plant response rating, Wheat [7, 21]: 0 | Wheat plant response rating [7, 22]: 0 | Wheat plant response rating [7, 23]: 6 | Giant foxtail plant response rating [8, 17]: 8 | Giant foxtail plant response rating [8, 18]: 8 | Plant response rating, Giant foxtail [8, 20]: 9 | Plant response rating, Giant foxtail [8, 21]: 2 | Giant foxtail plant response rating [8, 22]: 3 | Giant foxtail plant response rating [8, 23]: 10 | Sugarbeets plant response rating [9, 17]: 0 | Sugarbeets plant response rating [9, 18]: 0 | Plant response rating, Sugarbeets [9, 20]: 3 | Plant response rating, Sugarbeets [9, 21]: 0 | Sugarbeets plant response rating [9, 22]: 0 | Sugarbeets plant response rating [9, 23]: 5 | Cocklebur plant response rating [10, 17]: 0 | Cocklebur plant response rating [10, 18]: 0 | Cocklebur plant response rating [10, 19]: 0 | Plant response rating, Cocklebur [10, 20]: 4 | Plant response rating, Cocklebur [10, 21]: 0 | Cocklebur plant response rating [10, 22]: 0 | Cocklebur plant response rating [10, 24]: 0 | Cocklebur plant response rating [10, 23]: 0 | Redroot pigweed plant response rating [11, 17]: 0 | Redroot pigweed plant response rating [11, 18]: 4 | Plant response rating, Redroot pigweed [11, 20]: 7 | Plant response rating, Redroot pigweed [11, 21]: 8 | Redroot pigweed plant response rating [11, 22]: 9 | Redroot pigweed plant response rating [11, 23]: 10 | Wild oats plant response rating [12, 17]: 0 | Wild oats plant response rating [12, 18]: 0 | Plant response rating, Wild oats [12, 20]: 3 | Plant response rating, Wild oats [12, 21]: 4 | Wild oats plant response rating [12, 22]: 4 | Wild oats plant response rating [12, 23]: 5 | Rape plant response rating [13, 17]: 0 | Rape plant response rating [13, 18]: 0 | Plant response rating, Rape [13, 20]: 4 | Plant response rating, Rape [13, 21]: 0 | Rape plant response rating [13, 22]: 0 | Rape plant response rating [13, 23]: 4 | Morningglory plant response rating [14, 17]: 2 | Morningglory plant response rating [14, 18]: 2 | Plant response rating, Morningglory [14, 20]: 2 | Plant response rating, Morningglory [14, 21]: 0 | Morningglory plant response rating [14, 22]: 0 | Morningglory plant response rating [14, 23]: 0 | Nutsedge plant response rating [15, 17]: 0 | Nutsedge plant response rating [15, 18]: 0 | Plant response rating, Nutsedge [15, 21]: 0 | Nutsedge plant response rating [15, 22]: 0 | Nutsedge plant response rating [15, 23]: 0 | B. signalgrass plant response rating [16, 17]: 0 | B. signalgrass plant response rating [16, 18]: 4 | B. signalgrass plant response rating [16, 27]: 6 | Plant response rating, B. signalgrass [16, 20]: 8 | Plant response rating, B. signalgrass [16, 21]: 0 | B. signalgrass plant response rating [16, 22]: 0 | B. signalgrass plant response rating [16, 24]: 0 | B. signalgrass plant response rating [16, 28]: 0

CC(Cl)=CCn1c(=O)on(C(=O)N(c2ccc(F)cc2F)C(C)C)c1=O [Compound 514]
Crabgrass plant response rating [1, 17]: 7 | Crabgrass plant response rating [1, 18]: 9 | Crabgrass plant response rating [1, 19]: 9 | Plant response rating, Crabgrass [1, 20]: 10 | Plant response rating, Crabgrass [1, 21]: 5 | Crabgrass plant response rating [1, 22]: 7 | Crabgrass plant response rating [1, 23]: 10 | Velvetleaf plant response rating [2, 17]: 2 | Velvetleaf plant response rating [2, 18]: 2 | Plant response rating, Velvetleaf [2, 20]: 5 | Plant response rating, Velvetleaf [2, 21]: 0 | Velvetleaf plant response rating [2, 22]: 0 | Velvetleaf plant response rating [2, 23]: 5 | Blackgrass plant response rating [3, 17]: 0 | Blackgrass plant response rating [3, 18]: 3 | Blackgrass plant response rating [3, 19]: 5 | Plant response rating, Blackgrass [3, 20]: 5 | Plant response rating, Blackgrass [3, 21]: 2 | Blackgrass plant response rating [3, 22]: 2 | Blackgrass plant response rating [3, 24]: 5 | Blackgrass plant response rating [3, 23]: 7 | Corn plant response rating [4, 17]: 0 | Corn plant response rating [4, 18]: 0 | Corn plant response rating [4, 19]: 0 | Plant response rating, Corn [4, 20]: 5 | Plant response rating, Corn [4, 21]: 0 | Corn plant response rating [4, 22]: 0 | Corn plant response rating [4, 23]: 5 | Plant response rating, Bedstraw ([5]; Preemergence, Rate 62 g/ha): 0 | Bedstraw plant response rating [5, 25]: 0 | Bedstraw plant response rating [5, 26]: 0 | Soybean plant response rating [6, 17]: 6 | Soybean plant response rating [6, 18]: 7 | Plant response rating, Soybean [6, 20]: 7 | Plant response rating, Soybean [6, 21]: 0 | Soybean plant response rating [6, 22]: 0 | Soybean plant response rating [6, 23]: 0 | Wheat plant response rating [7, 17]: 0 | Wheat plant response rating [7, 18]: 0 | Plant response rating, Wheat [7, 20]: 0 | Plant response rating, Wheat [7, 21]: 0 | Wheat plant response rating [7, 22]: 0 | Wheat plant response rating [7, 23]: 4 | Giant foxtail plant response rating [8, 17]: 6 | Giant foxtail plant response rating [8, 18]: 9 | Plant response rating, Giant foxtail [8, 20]: 9 | Plant response rating, Giant foxtail [8, 21]: 9 | Giant foxtail plant response rating [8, 22]: 10 | Giant foxtail plant response rating [8, 23]: 10 | Sugarbeets plant response rating [9, 17]: 3 | Sugarbeets plant response rating [9, 18]: 3 | Plant response rating, Sugarbeets [9, 20]: 5 | Plant response rating, Sugarbeets [9, 21]: 0 | Sugarbeets plant response rating [9, 22]: 5 | Sugarbeets plant response rating [9, 23]: 6 | Cocklebur plant response rating [10, 17]: 0 | Cocklebur plant response rating [10, 18]: 1 | Cocklebur plant response rating [10, 19]: 3 | Plant response rating, Cocklebur [10, 20]: 5 | Plant response rating, Cocklebur [10, 21]: 0 | Cocklebur plant response rating [10, 22]: 0 | Cocklebur plant response rating [10, 24]: 0 | Cocklebur plant response rating [10, 23]: 0 | Redroot pigweed plant response rating [11, 17]: 0 | Redroot pigweed plant response rating [11, 18]: 2 | Plant response rating, Redroot pigweed [11, 20]: 8 | Plant response rating, Redroot pigweed [11, 21]: 7 | Redroot pigweed plant response rating [11, 22]: 8 | Redroot pigweed plant response rating [11, 23]: 10 | Wild oats plant response rating [12, 17]: 0 | Wild oats plant response rating [12, 18]: 0 | Plant response rating, Wild oats [12, 20]: 3 | Plant response rating, Wild oats [12, 21]: 3 | Wild oats plant response rating [12, 22]: 4 | Wild oats plant response rating [12, 23]: 6 | Rape plant response rating [13, 17]: 6 | Rape plant response rating [13, 18]: 6 | Plant response rating, Rape [13, 20]: 8 | Plant response rating, Rape [13, 21]: 0 | Rape plant response rating [13, 22]: 0 | Rape plant response rating [13, 23]: 8 | Morningglory plant response rating [14, 17]: 2 | Morningglory plant response rating [14, 18]: 7 | Plant response rating, Morningglory [14, 20]: 7 | Plant response rating, Morningglory [14, 21]: 0 | Morningglory plant response rating [14, 22]: 0 | Morningglory plant response rating [14, 23]: 0 | Nutsedge plant response rating [15, 17]: 0 | Nutsedge plant response rating [15, 18]: 0 | Plant response rating, Nutsedge [15, 20]: 0 | Plant response rating, Nutsedge [15, 21]: 0 | Nutsedge plant response rating [15, 23]: 0 | B. signalgrass plant response rating [16, 17]: 0 | B. signalgrass plant response rating [16, 18]: 0 | B. signalgrass plant response rating [16, 27]: 3 | Plant response rating, B. signalgrass [16, 20]: 5 | Plant response rating, B. signalgrass [16, 21]: 6 | B. signalgrass plant response rating [16, 22]: 6 | B. signalgrass plant response rating [16, 24]: 8 | B. signalgrass plant response rating [16, 28]: 10
